Assay results: publication PMC4264199, “Peptide Array on Cellulose Support—A Screening Tool to Identify Peptides with Dipeptidyl-Peptidase IV Inhibitory Activity within the Sequence of α-Lactalbumin” (International Journal of Molecular Sciences, 2014)
Several values for one entry are separate records, joined by “and”; a condition that tells them apart may be missing. Equal entries are not always repeated. Entries after “also recorded” stand apart in the source; their conditions may differ. Ends that are not written are not given here.

What was measured:
[1] = molecular target: T1, dipeptidyl-peptidase IV (DPP-IV) (Homo sapiens, UniProt P27487); assay: DPP-IV inhibition assay on SPOT-synthesized peptides (cleaved from cellulose membrane); assay type: biochemical; conditions: for Percent inhibition of DPP-IV activity, SPOT-synthesized deca-peptides: peptides cleaved from cellulose membrane, concentration not known (semi-quantitative), averages of four determinations from two experiments
T1 construct: purchased Creative BioMart (Shirley, NY, USA); host or cells: HEK293 human cells
From the text: (§1) Recombinant human dipeptidyl-peptidase IV (DPP-IV, EC 3.4.14.5, expressed in HEK293 human cells, >95% purity, activity >5500 pmoles Gly–Pro–7-amido-4-methylcoumarin/min/µg) was purchased from Creative BioMart (Shirley, NY, USA) while polyclonal goat DPP-IV antibody and polyclonal donkey anti-goat secondary antibody conjugated to horseradish peroxidase were obtained from R&D Systems (Minneapolis, MN, USA). Pierce™ ECL western blotting substrate and protein-free (TBS) blocking buffer were from Thermo Scientific (Rockford, IL, USA). Gly–Pro–p-nitroanilide (H-Gly–Pro–p-NA∙HCl) was purchased from Bachem Americas (Torrance, CA, USA). Synthesized peptides (≥95% purity) were prepared and purified by GL Biochem (Shanghai) Ltd. (Shanghai, China).
Peptide arrays of deca-peptides spanning the entire α-lactalbumin sequence with a frame shift of one amino acid between successive sequences were prepared by Kinexus Bioinformatics Corporation (Vancouver, BC, Canada). The peptides were synthesized from the C-terminal amino acid using the SPOT technology consisting of the stepwise coupling of the Fmoc-protected amino acids and cleavage of the side chain protection groups. The α-lactalbumin-derived peptides were synthesized on trioxatridecanediamine (TOTD) and β-alanine-modified Whatman 540 cellulose membranes for the binding and inhibition assays, respectively. For the inhibition assay, the peptides were synthesized in large dots (5–7 mm in diameter) and the quality of the synthesis was verified by HPLC analysis of quality controls spots included on the membranes.
In order to determine the effect of the SPOT-synthesized peptides on the activity of the DPP-IV enzyme, the peptides were first cleaved from the cellulose support by incubating the membranes with gaseous ammonia overnight. Peptide spots (5 mm in diameter) were then punched out using a single-hole punch and transferred into microcentrifuge tubes containing 150 µL of acetonitrile (50% in 100 mM Tris–HCl buffer pH 8.0). The peptide solution (50 µL) was pipetted into a 96-well microplate with 35 µL of the chromogenic substrate Gly–Pro–p-NA (0.29 mM in 100 mM Tris–HCl buffer pH 8.0). The mixture was pre-incubated for 10 min at 37 °C, whereupon 15 µL of DPP-IV (25 mU/mL) was added and the enzymatic reaction was carried out for 30 min at 37 °C. The reaction was then terminated by addition of 100 µL of 1 M sodium acetate buffer pH 4.0 and the absorbance of the released p-nitroaniline was measured at 405 nm using a Tecan Infinite® 200 Pro microplate reader (ESBE Scientific, Markham, ON, Canada). Positive and negative controls (DPP-IV activity with no inhibitor and no DPP-IV activity, respectively) were prepared using punched peptide-free cellulose spots from the same membrane used for peptide synthesis, and adding Tris-HCl buffer in place of the sample and in place of the sample and enzyme solution, respectively.
One unit of DPP-IV was defined as the concentration of enzyme that releases 1 µmol per min of p-nitroaniline from Gly–Pro–p-NA (100 µM) at 37 °C and pH 8.0.

[2] = molecular target: T1, dipeptidyl-peptidase IV (DPP-IV); assay: DPP-IV inhibition assay on traditionally-synthesized peptides; assay type: biochemical; conditions: 250 µM of peptides (final assay concentration); averages of three determinations
From the text: as §1
The peptides were dissolved in a mixture of acetonitrile and H2O and further diluted in 100 mM Tris-HCl pH 8.0 buffer to the desired concentrations. In a 96-well microplate, 25 µL of sample were pre-incubated with 25 µL of 100 mM Tris-HCl pH 8.0 buffer and 35 µL of Gly–Pro–p-NA (0.29 mM in 100 mM Tris-HCl buffer pH 8.0) at 37 °C for 10 min. The enzymatic reaction was started by addition of 15 µL of DPP-IV solution (25 mU/mL) and carried out at 37 °C for 30 min. Sodium acetate buffer (1 M, pH 4.0, 100 µL) was added to stop the reaction and the absorbance of the released p-nitroaniline was measure at 405 nm using a Tecan Infinite® 200 Pro microplate reader. The positive and negative controls were prepared by using Tris-HCl buffer (100 mM, pH 8.0) in place of the sample and in place of the sample and enzyme solution, respectively.

[3] = molecular target: T1, dipeptidyl-peptidase IV (DPP-IV); assay: Probing of membrane-bound peptide arrays: binding of DPP-IV to deca-peptides (immunoassay, chemiluminescence); conditions: for Binding of DPP-IV to cellulose-bound deca-peptide (in words): peptide array on cellulose membrane, DPP-IV 10 μg/mL
Protocol: The interaction between the DPP-IV enzyme and deca-peptides spanning the entire α-lactalbumin sequence (Table S1) was first determined by immunoassay and visualized using an enhanced chemiluminescence substrate (Figure 1).
The membranes were first blocked with protein-free (Tris-buffered saline (TBS)) blocking buffer containing 0.05% Tween-20 for 4 h at room temperature and then incubated with DPP-IV (10 μg/mL in blocking buffer) overnight at 4 °C. The membranes were washed with TBS (50 mM Tris, 136 mM NaCl, 0.05% Tween-20, pH 8.0) four times for 15 min each, after which they were incubated with the polyclonal goat DPP-IV antibody (0.2 µg/mL) for 8 h at 4 °C. The membranes were once again washed with TBS four times for 15 min each prior to being incubated with anti-goat secondary antibody conjugated to horseradish peroxidase (0.1 µg/mL) overnight at 4 °C. Finally, the membranes were washed four more times for 15 min each; then a thin layer of chemiluminescence detection mixture, prepared according to the manufacturer’s instructions, was applied for 1 min and the luminescence generated from the spots on the membranes with bound DPP-IV was measured using a ChemiDoc™ MP system (Bio-Rad Laboratories (Canada) Ltd., Mississauga, ON, Canada).

[4] = system: DPP-IV; conditions: Table S2; cited from earlier work
[5] = molecular target: T1, dipeptidyl-peptidase IV (DPP-IV); assay: Determination of the mode of inhibition and the inhibition constant (Ki); assay type: biochemical
Protocol: The traditionally-synthesized peptides showing the highest inhibitory activity against DPP-IV were further studied for their mode of action on the enzyme as previously described with the following modifications: the substrate (25 µL) was combined with 100 mM Tris-HCl buffer pH 8.0 (35 µL) and the sample (25 µL) and pre-incubated for 10 min at 37 °C, after which the enzymatic reaction was started by addition of the DPP-IV enzyme (15 µL of a 25 mU/mL solution).
The mode of inhibition and Ki values of the inhibitory peptides were determined by fitting the initial velocity versus substrate concentration data to nonlinear regression models using the GraphPad Prism software (version 6, GraphPad Software, San Diego, CA, USA). The Ki values are expressed as final assay concentrations.

T1 sequence (P27487 whole entry): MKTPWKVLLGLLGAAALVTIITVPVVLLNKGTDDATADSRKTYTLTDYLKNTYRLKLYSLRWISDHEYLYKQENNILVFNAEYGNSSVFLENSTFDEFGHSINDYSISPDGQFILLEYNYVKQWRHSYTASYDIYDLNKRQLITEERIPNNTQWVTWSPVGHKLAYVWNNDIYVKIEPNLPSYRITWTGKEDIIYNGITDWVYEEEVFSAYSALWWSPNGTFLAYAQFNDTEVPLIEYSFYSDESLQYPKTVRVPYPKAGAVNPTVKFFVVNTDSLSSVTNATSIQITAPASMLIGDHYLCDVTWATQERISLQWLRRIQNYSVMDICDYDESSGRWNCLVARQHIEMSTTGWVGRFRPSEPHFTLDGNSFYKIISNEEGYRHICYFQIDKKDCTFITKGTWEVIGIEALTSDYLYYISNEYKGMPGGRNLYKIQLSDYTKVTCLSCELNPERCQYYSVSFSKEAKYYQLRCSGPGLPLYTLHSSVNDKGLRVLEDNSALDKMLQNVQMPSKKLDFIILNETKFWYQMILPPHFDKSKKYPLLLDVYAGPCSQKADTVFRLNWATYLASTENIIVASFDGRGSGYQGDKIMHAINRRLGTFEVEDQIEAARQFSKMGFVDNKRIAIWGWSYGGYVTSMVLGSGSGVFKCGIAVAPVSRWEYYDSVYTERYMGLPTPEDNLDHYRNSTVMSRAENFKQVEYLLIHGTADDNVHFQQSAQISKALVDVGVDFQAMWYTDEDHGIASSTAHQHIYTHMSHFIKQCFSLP

| Substance | Percent inhibition of DPP-IV activity, SPOT-synthesized deca-peptides [1] | inhibition at 250 µM [2] | other results |
| --- | --- | --- | --- |
| CKDDQNPHSS [F6, CKDDQNPHSS] | 15% | -3% |  |
| DTQAIVQNND [D4, DTQAIVQNND] | 14% | 2% |  |
| EQLTKCEVFR [A1, EQLTKCEVFR] | 11% | 10% |  |
| FHTSGYDTQA [C9, FHTSGYDTQA] | 12% | 2% |  |
| GYGGVSLPEW [B6, GYGGVSLPEW] | 17% | 8% |  |
| ICNISCDKFL [G6] | 31% |  | Binding of DPP-IV to cellulose-bound deca-peptide (in words) [3]: moderate or no binding |
| IPAVFKIDA |  |  | Reported Relationship to DPP-IV [4]: inhibitor |
| IPAVFKIDAL [K7, IPAVFKIDAL] | 25% | 48% | Ki [5]: 156 ± 11 µM |
| J4: α-lactalbumin-derived deca-peptide, residues 103–112 (Table S1) (YWLAHKALCS; UniProt P00711 122-131, looked up, fragment) | 20% |  |  |
| J5: α-lactalbumin-derived deca-peptide, residues 104–113 (Table S1) (WLAHKALCSE; UniProt P00711 123-132, looked up, fragment) | 16% |  |  |
| KALCSEKLDQ [J9] | 24% |  |  |
| KDDQNPHSSN [F7] | 16% |  |  |
| KIWCKDDQNP [F3] | 19% |  |  |
| KKILDKVGIN [I5] | 17% |  | Binding of DPP-IV to cellulose-bound deca-peptide (in words) [3]: strongest binding to DPP-IV; Percent inhibition of DPP-IV activity, SPOT-synthesized deca-peptides ([1]; listed as KKILDKVGIN): less than 20% |
| KLDQWLCEKL [K4] | 19% |  |  |
| LAHKALCSEK [J6, LAHKALCSEK] | 27% | 31% | Ki [5]: 217 ± 9 µM |
| LCSEKLDQWL [J11, LCSEKLDQWL] | 25% | 25% | Ki [5]: 217 ± 15 µM |
| LFQINNKIWC [E8] | 13% |  |  |
| LKPTPEGDL |  |  | Reported Relationship to DPP-IV [4]: inhibitors |
| LKPTPEGDLE [K6, LKPTPEGDLE] | 23% | 24% | Ki [5]: 729 ± 128 µM |
| LPEWVCTTFH [C1, LPEWVCTTFH] | 26% | 26% | Ki [5]: 300 ± 16 µM |
| NDSTEYGLFQ [E1] | 14% |  |  |

| Substance | Percent inhibition of DPP-IV activity, SPOT-synthesized deca-peptides [1] | inhibition at 250 µM [2] | other results |
| --- | --- | --- | --- |
| NKIWCKDDQN [F2] | 17% |  |  |
| NNDSTEYGLF [D11, NNDSTEYGLF] | 11% |  |  |
| NNKIWCKDDQ [F1] | 22% |  |  |
| NPHSSNICNI [F11, NPHSSNICNI] | 15% |  |  |
| QINNKIWCKD [E10, QINNKIWCKD] | 6% |  |  |
| QNNDSTEYGL [D10, QNNDSTEYGL] | 14% |  |  |
| QNPHSSNICN [F10, QNPHSSNICN] | 8% | 2% |  |
| RELKDLKGYG [A10] | 14% |  |  |
| SCDKFLDDDL [G10] | 21% |  |  |
| SEKLDQWLCE [K2] | 19% |  |  |
| SLPEWVCTTF [B11] | 9% |  |  |
| STEYGLFQIN [E3] | 13% |  |  |
| TEYGLFQINN [E4] | 9% |  |  |
| TSGYDTQAIV [C11, TSGYDTQAIV] | 14% | -1% |  |
| VFRELKDLKG [A8, VFRELKDLKG] | 14% | 3% |  |
| VKKILDKVGI [I4] | 18% |  | Binding of DPP-IV to cellulose-bound deca-peptide (in words) [3]: strongest binding to DPP-IV; Percent inhibition of DPP-IV activity, SPOT-synthesized deca-peptides ([1]; listed as VKKILDKVGI): less than 20% |
| VQNNDSTEYG [D9] | 13% |  |  |
| VSLPEWVCTT [B10] | 15% |  |  |
| WCKDDQNPHS [F5] | 29% |  | Binding of DPP-IV to cellulose-bound deca-peptide (in words) [3]: moderate or no binding; also recorded: no or only moderate interaction with DPP-IV; Category: binding ([3]; peptide array spot, relative luminescence intensity): moderate/no binding; Category: inhibitory activity ([1]; class by decrease in DPP-IV activity): High inhibitory activity (High inhibitory activity refers to peptides able to cause more than 20% decrease in DPP-IV activity); αKi ([5]; traditionally synthesized peptide, un-competitive inhibition, final assay concentration, average ± standard error, triplicate): 76 µM and 76 ± 5 µM; Mode of Inhibition ([5]; traditionally synthesized peptides, Lineweaver-Burk / nonlinear regression): Un-competitive; % DPP-IV Inhibition Traditionally-Synthesized [2]: 51% |
| YAEGTFISDY [K9, reference compound] | 24% |  | Binding of DPP-IV to cellulose-bound deca-peptide (in words) [3]: found to bind to DPP-IV |
| YGLFQINNKI [E6] | 11% |  |  |
| YPSKPDNPGE [K11, YPSKPDNPGE, reference compound] | 31% | 25% | Ki [5]: 262 ± 17 µM |
